The subject of test [1] is HL-60. Put plainly: Cytotoxicity against human HL60 cells at 20 ug/mL. Format: functional, cell-based.
The subject of test [2] is A549. Put plainly: Cytotoxicity against human A549 cells at 20 ug/mL. Format: functional, cell-based.

Activity data for 4 compounds are collected here from ChEMBL document CHEMBL1157950, “Sarcophytonolides E-H, cembranolides from the Hainan soft coral Sarcophyton latum” (J Nat Prod, 2006).

Activity calls are given as the source filed them. The calls are words filed in the database; no cut-off is given here.

For the compound `C/C1=C\[C@H](O)CC2=C[C@@H](OC2=O)[C@H](C(C)C)CC/C(C)=C/CC1`, the outcome in test [1] and in test [2] was inactive.

As for `CC(=O)O[C@H]1C/C(C)=C/CC/C(C)=C/[C@H](O)CC2=C[C@H](OC2=O)[C@@H]1C(C)C`, the result in test [1] and in test [2] was inactive.

In the case of `C/C1=C\CC[C@H](C)C[C@H](O)CC2=C[C@@H](OC2=O)[C@H](C(C)C)CC1`, the outcome in test [1] and in test [2] was inactive.

As to `C/C1=C\[C@@H](O)CC2=C[C@@H](OC2=O)[C@H](C(C)C)CC/C(C)=C/CC1`, the result in test [1] and in test [2] was inactive.
